Reference: PubChem BioAssay AID1845202 (Molecular Pharmacology Branch, DTP, NCI, 2023)

System: DMS 114 tumor spheroids, viability % test/control
Test: Anticancer human tumor DMS 114 cell line growth inhibition;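 also: spheroids exposed to compounds for 7 days before read-out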;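 as to viability, T/C: luminescence used as a proxy for viable cells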
Conditions: spheroids with HUVEC and MSC; for IC50: curve of first compound; for viability, T/C: stronger effect = lower value
Summary of the method: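 Complex spheroids of malignant cells with endothelial cells and mesenchymal stem cells; agents alone or combined, from near clinical Cmax (or 10 microM if unknown) down in half-log steps, 0.25% DMSO final.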

CC1COCCN1c1cc(-c2ccnn2C)c2ccnc(-c3ccn[nH]3)c2n1 (stereo not given) + CC[C@@]1(O)C(=O)OCc2c1cc1n(c2=O)Cc2cc3c(CN(C)C)c(O)ccc3nc2-1
IC50 (second compound 0.003 µM): < 0.0316 µM
IC50 (second compound 0.00949 µM): < 0.0316 µM
IC50 (second compound 0.03 µM): < 0.0316 µM
IC50 (second compound 0.0949 µM): < 0.0316 µM
IC50 (second compound 0.3 µM): < 0.0316 µM
viability, T/C (second compound 0.003 µM, first compound 0.0316 µM): 24.7%
viability, T/C (second compound 0.003 µM, first compound 0.1 µM): 20.3%
viability, T/C (second compound 0.003 µM, first compound 0.316 µM): 15.8%
viability, T/C (second compound 0.003 µM, first compound 1 µM): 11.9%
viability, T/C (second compound 0.003 µM, first compound 3.16 µM): 8.38%
viability, T/C (second compound 0.003 µM, first compound 10 µM): 8.31%
viability, T/C (second compound 0.00949 µM, first compound 0.0316 µM): 16.8%
viability, T/C (second compound 0.00949 µM, first compound 0.1 µM): 16.3%
viability, T/C (second compound 0.00949 µM, first compound 0.316 µM): 15.2%
viability, T/C (second compound 0.00949 µM, first compound 1 µM): 10.5%
viability, T/C (second compound 0.00949 µM, first compound 3.16 µM): 7.71%
viability, T/C (second compound 0.00949 µM, first compound 10 µM): 8.35%
viability, T/C (second compound 0.03 µM, first compound 0.0316 µM): 13.2%
viability, T/C (second compound 0.03 µM, first compound 0.1 µM): 13%
viability, T/C (second compound 0.03 µM, first compound 0.316 µM): 11.1%
viability, T/C (second compound 0.03 µM, first compound 1 µM): 8.42%
viability, T/C (second compound 0.03 µM, first compound 3.16 µM): 7.3%
viability, T/C (second compound 0.03 µM, first compound 10 µM): 7.49%
viability, T/C (second compound 0.0949 µM, first compound 0.0316 µM): 8.52%
viability, T/C (second compound 0.0949 µM, first compound 0.1 µM): 8.81%
viability, T/C (second compound 0.0949 µM, first compound 0.316 µM): 8.07%
viability, T/C (second compound 0.0949 µM, first compound 1 µM): 7.09%
viability, T/C (second compound 0.0949 µM, first compound 3.16 µM): 6.17%
viability, T/C (second compound 0.0949 µM, first compound 10 µM): 7.21%
viability, T/C (second compound 0.3 µM, first compound 0.0316 µM): 6.92%
viability, T/C (second compound 0.3 µM, first compound 0.1 µM): 7.23%
viability, T/C (second compound 0.3 µM, first compound 0.316 µM): 6.75%
viability, T/C (second compound 0.3 µM, first compound 1 µM): 6.68%
viability, T/C (second compound 0.3 µM, first compound 3.16 µM): 6.95%
viability, T/C (second compound 0.3 µM, first compound 10 µM): 7.43%

[2H]c1nc(C)nc([2H])c1-c1cc(NC[C@@H](C)c2cccc3c(C(=O)NC)ccnc23)ncn1 + Cn1nnc2c(C(N)=O)ncn2c1=O
IC50 (second compound 1 µM): > 10 µM
IC50 (second compound 3.16 µM): > 10 µM
IC50 (second compound 10 µM): > 10 µM
IC50 (second compound 31.6 µM): > 10 µM
IC50 (second compound 100 µM): > 10 µM
viability, T/C (second compound 1 µM, first compound 0.0316 µM): 94.5%
viability, T/C (second compound 1 µM, first compound 0.1 µM): 104%
viability, T/C (second compound 1 µM, first compound 0.316 µM): 98.4%
viability, T/C (second compound 1 µM, first compound 1 µM): 99.5%
viability, T/C (second compound 1 µM, first compound 3.16 µM): 97.3%
viability, T/C (second compound 1 µM, first compound 10 µM): 98.5%
viability, T/C (second compound 3.16 µM, first compound 0.0316 µM): 108%
viability, T/C (second compound 3.16 µM, first compound 0.1 µM): 100%
viability, T/C (second compound 3.16 µM, first compound 0.316 µM): 99.7%
viability, T/C (second compound 3.16 µM, first compound 1 µM): 102%
viability, T/C (second compound 3.16 µM, first compound 3.16 µM): 99.9%
viability, T/C (second compound 3.16 µM, first compound 10 µM): 101%
viability, T/C (second compound 10 µM, first compound 0.0316 µM): 110%
viability, T/C (second compound 10 µM, first compound 0.1 µM): 109%
viability, T/C (second compound 10 µM, first compound 0.316 µM): 98.2%
viability, T/C (second compound 10 µM, first compound 1 µM): 110%
viability, T/C (second compound 10 µM, first compound 3.16 µM): 95.5%
viability, T/C (second compound 10 µM, first compound 10 µM): 94.8%
viability, T/C (second compound 31.6 µM, first compound 0.0316 µM): 104%
viability, T/C (second compound 31.6 µM, first compound 0.1 µM): 99%
viability, T/C (second compound 31.6 µM, first compound 0.316 µM): 113%
viability, T/C (second compound 31.6 µM, first compound 1 µM): 107%
viability, T/C (second compound 31.6 µM, first compound 3.16 µM): 110%
viability, T/C (second compound 31.6 µM, first compound 10 µM): 95.2%
viability, T/C (second compound 100 µM, first compound 0.0316 µM): 93.3%
viability, T/C (second compound 100 µM, first compound 0.1 µM): 105%
viability, T/C (second compound 100 µM, first compound 0.316 µM): 98.3%
viability, T/C (second compound 100 µM, first compound 1 µM): 94.7%
viability, T/C (second compound 100 µM, first compound 3.16 µM): 84.7%
viability, T/C (second compound 100 µM, first compound 10 µM): 87.6%
